Drawing on US6384061B1, “Hydantoin compounds and methods related thereto” (LG Chemical Ltd., priority 2000, dated 2002), this text covers IC50 for 23 compounds.

The target in assay [1] is T1, Ras farnesyl transferase (Homo sapiens, UniProt P49354+P49356).
T1 construct: made in house
Description: Ras farnesyl transferase inhibiting activity (filter-binding, tritium-farnesylpyrophosphate, Ras-CVLS substrate). Type of assay: biochemical. Conditions: recombinant Ras farnesyl transferase, 30 minutes at 37° C., read-out: Ftase IC50.

Assay [2] concerns intracellular Ras farnesyl transferase, Rat2 cell line. The assay is described as follows: Intracellular Ras farnesyl transferase inhibiting activity in transformed Rat2 cells (35S-methionine labelling, Y13-259 immunoprecipitation, SDS-PAGE). Type of assay: cell-based. The settings on record: Rattus norvegicus; transformed Rat2 fibroblast cell line; concentration inhibiting 50% of farnesyl binding of Ras protein; read-out: Ftase CIC50. The essentials:
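Rat2 fibroblasts transformed with H-Ras, or with H-Ras carrying the K-Ras polybasic lysine C-terminus, were treated with compound (1% DMSO). After 4 h they were labelled for 20 h with 150 μCi/ml 35S-methionine. Lysates were immunoprecipitated with Y13-259, run on 13.5% SDS-PAGE and autoradiographed; CIC50 is the concentration halving farnesylated versus unfarnesylated Ras band intensity.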

For assay [3], the target named is T2, Geranylgeranyl transferase (Bos taurus, UniProt P29702+Q5EAD5).
T2 construct: Geranylgeranyl transferase was purified from bovine brain; from tissue; host or cells: bovine brain
Description: Geranylgeranyl transferase inhibiting activity (geranylgeranyl pyrophosphate, Ras-CVIL substrate). Conditions: geranylgeranyl transferase purified from bovine brain, read-out: GGtase IC50. Type of assay: biochemical. The essentials:
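Bovine-brain-purified enzyme run as in the farnesyl transferase assay, with geranylgeranyl pyrophosphate and Ras-CVIL substrate protein under similar reaction conditions.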

Structures are written as SMILES.

As for `CC1(c2cccc3ccccc23)C(=O)N(CCCn2ccnc2)C(=O)N1Cc1ccc(CNS(C)(=O)=O)cc1` (stereo not drawn) [Compound 37, N-{4-[3-(3-imidazol-1-yl-propyl)-5-methyl-5-naphthalen-1-yl-2,4-dioxo-imidazolidin-1-ylmethyl]-benzyl}-methanesulfonamide], the IC50 in assay [1] is 0.35 µM; in assay [2], < 20 µM; in assay [3], > 10 µM.
For `CC1(c2cccc3ccccc23)C(=O)N(CCCn2ccnc2)C(=O)N1Cc1ccc(Oc2ccccc2)cc1` (stereo not drawn) [Compound 24, 3-(3-imidazol-1-yl-propyl)-5-methyl-5-naphthalen-1-yl-1-(4-phenoxy-benzyl)-imidazolidin-2,4-dione], the IC50 was 0.75 µM in assay [1], < 20 µM in assay [2] and > 10 µM in assay [3].
`O=C1CN(c2cccc3ccccc23)C(=O)N1Cc1cncn1Cc1ccc(Cl)cc1` [Compound 73, 3-[3-(4-chloro-benzyl)-3H-imidazol-4-ylmethyl]-1-naphthalen-1-yl-imidazolidin-2,4-dione]: the IC50 in assay [1] was 0.8 µM; in assay [2] it was < 10 µM; in assay [3], > 10 µM.
`CC1(c2cccc3ccccc23)C(=O)N(CCCc2cnc[nH]2)C(=O)N1CC(=O)N1CCSC1` (stereo not drawn) [Compound 10, 3-[3-(3H-imidazol-4-yl)-propyl]-5-methyl-5-naphthalen-1-yl-1-(2-oxo-2-thiazolidin-3-yl-ethyl)-imidazolidin-2,4-dione]: the IC50 in assay [1] is > 50 µM; in assay [2], < 20 µM; in assay [3], > 10 µM.
Regarding `CC1(c2ccccc2)C(=O)N(CCCn2ccnc2)C(=O)N1Cc1cccc(C#N)c1` (stereo not drawn) [Compound 71, 3-[3-(3-imidazol-1-yl-propyl)-5-methyl-5-phenyl-2,4-dioxo-imidazolidin-1-ylmethyl]-benzonitrile], the IC50 is 7 µM in assay [1], < 20 µM in assay [2] and > 10 µM in assay [3].
Take `CCOC(=O)CN1C(=O)N(CCCc2cncn2Cc2ccc(C#N)cc2)C(=O)C1(C)c1cccc2ccccc12` (stereo not drawn) [Compound 51, (3-{3-[3-(4-cyanobenzyl)-3H-imidazol-4-yl]-propyl}-5-methyl-5-naphthalen-1-yl-2,4-dioxo-imidazolidin-1-yl)-acetic acid ethyl ester]: the IC50 in assay [1] was 0.019 µM; in assay [2], < 20 µM; in assay [3], > 10 µM.
Consider `CC1(c2cccc3ccccc23)C(=O)N(CCCn2ccnc2)C(=O)N1Cc1cccnc1` (stereo not drawn) [Compound 18, 1-(3-pyridylmethyl)-3-(3-imidazol-1-yl-propyl)-5-methyl-5-naphthalen-1-yl-imidazolidin-2,4-dione], for which the IC50 was 0.6 µM in assay [1], < 20 µM in assay [2] and > 10 µM in assay [3].
In the case of `CC1(c2cccc3ccccc23)C(=O)N(CCCc2cncn2Cc2ccc(C#N)cc2)C(=O)N1Cc1ccco1` (stereo not drawn) [Compound 55, 4-{5-[3-(3-furan-2-ylmethyl-4-methyl-4-naphthalen-1-yl-2,5-dioxo-imidazolidin-1-yl)-propyl]-imidazol-1-ylmethyl}-benzonitrile], the IC50 is 0.045 µM in assay [1], < 20 µM in assay [2] and > 10 µM in assay [3].
With `CN1CCN(C(=O)C[C@H]2C(=O)N(Cc3cncn3Cc3ccc(C#N)cc3)C(=O)N2Cc2cccc3ccccc23)CC1` [Compound 84, 4-((5S)-{4-[2-(4-methyl-piperazin-1-yl)-2-oxo-ethyl]-3-naphthalen-1-ylmethyl-2,5-dioxo-imidazolidin-1-ylmethyl}-imidazol-1-ylmethyl)-benzonitrile], the figures for the IC50 in assay [1], in assay [2] and in assay [3] were 0.12 µM, < 20 µM and > 10 µM, respectively.
As to `N#Cc1ccc(Cn2cncc2CN2C(=O)C(CC(=O)N3CCOCC3)N(Cc3cccc4ccccc34)C2=O)cc1` (stereo not drawn) [Compound 80, 4-{5-[4-(2-morpholin-4-yl-2-oxo-ethyl)-3-naphthalen-1-ylmethyl-2,5dioxo-imidazolidin-1-ylmethyl]-imidazol-1-ylmethyl}-benzonitrile], the IC50 in assay [1] is 0.09 µM; in assay [2], < 10 µM; in assay [3], > 10 µM.
As for `CSCCC1SCCN1C(=O)CN1C(=O)N(CCCc2cnc[nH]2)C(=O)C1(C)c1cccc2ccccc12` (stereo not drawn) [Compound 12, 3-[3-(3H-imidazol-4-yl)-propyl]-5-methyl-1-{2-[2-(2-methylsulfanyl-ethyl)-thiazolidin-3-yl]-2-oxo-ethyl}-5-naphthalen-1-yl-imidazolidin-2,4-dione], the figures for the IC50 in assay [1], in assay [2] and in assay [3] were 5.5 µM, < 20 µM and > 10 µM, respectively.
On to `CCCCN1C(=O)N(CCCc2cncn2Cc2ccc(C#N)cc2)C(=O)C1(C)c1cccc2ccccc12` (stereo not drawn) [Compound 49, 4-{5-[3-(3-butyl-4-methyl-4-naphthalen-1-yl-2,5-dioxo-imidazolidin-1-yl)-propyl]-imidazol-1-ylmethyl}benzonitrile], for which the IC50 in assay [1] was 0.055 µM; in assay [2], < 20 µM; in assay [3] it was > 10 µM.
The corresponding values for `CSCC[C@H](NC(=O)CC1C(=O)N(Cc2cncn2Cc2ccc(C#N)cc2)C(=O)N1Cc1cccc2ccccc12)C(=O)O` (stereo partly drawn) [Compound 86, (2S)-(2-{1-[3-(4-cyano-benzyl)-3H-imidazol-ylmethyl]-3-naphthalen-1-ylmethyl-2,5-dioxo-imidazolidin-4-yl}-acetamino)4-methylsulfanyl-butyric acid] are 0.05 µM, < 10 µM and > 10 µM.
For the compound `CC1(c2cccc3ccccc23)NC(=O)N(CCCc2cncn2Cc2ccc(Br)cc2)C1=O` (stereo not drawn) [Compound 68, 3-{3-[3-(4-bromo-benzyl)-3H-imidazol-4-yl]-propyl}-5-methyl-5-naphthalen-1-yl-imidazolidin-2,4-dione], the IC50 in assay [1] was 5 µM; in assay [2], < 20 µM; in assay [3], > 10 µM.
`CC1(c2cccc3ccccc23)C(=O)N(CCCc2cnc[nH]2)C(=O)N1CC(=O)NC(CCS(C)(=O)=O)C(=O)O` (stereo not drawn) [Compound 13, 2-(2-{3-[3-(3H-imidazol-4-yl)-propyl]-5-methyl-5-naphthalen-1-yl-2,4-dioxo-imidazolidin-1-yl}-acetylamino)-4-methylsulfonyl-butyric acid]: the results for the IC50 in assay [1], in assay [2] and in assay [3] were 0.0015 µM, < 20 µM and > 10 µM, respectively.
Consider `CC1(c2cccc3ccccc23)C(=O)N(CCCn2ccnc2)C(=O)N1CC(=O)NC1(C#N)CCOCC1` (stereo not drawn) [Compound 67, N-(4-cyano-tetrahydropyran-4-yl)-2-[3-(3-imidazol-1yl-propyl)-5-methyl-5-naphthalen-1-yl-2,4-dioxo-imidazolidin-1-yl]-acetamide], for which the IC50 in assay [1] was 3.6 µM; in assay [2], < 20 µM; in assay [3] it was > 10 µM.
The corresponding values for `CC1(c2cccc3ccccc23)C(=O)N(CCCn2ccnc2)C(=O)N1Cc1ccccc1CNS(C)(=O)=O` (stereo not drawn) [Compound 35, N-{2-[3-(3-imidazol-1-yl-propyl)-5-methyl-5-naphthalen-1-yl-2,4-dioxo-imidazolidin-1-ylmethyl]-benzyl}-methanesulfonamide] are 0.5 µM, < 20 µM and > 10 µM.
`CC1(c2cccc3ccccc23)C(=O)N(CCCn2ccnc2)C(=O)N1Cc1ccc(S(C)(=O)=O)cc1` (stereo not drawn) [Compound 28, 3-(3-imidazol-1-yl-propyl)-1-(4-methylsulfonyl-benzyl)-5-methyl-5-naphthalen-1-yl-imidazolidin-2,4-dione]: the IC50 was 1.1 µM in assay [1], < 20 µM in assay [2] and > 10 µM in assay [3].
Turning to `CC1(c2cccc3ccccc23)C(=O)N(CCCc2cncn2Cc2ccc(C#N)cc2)C(=O)N1C(=O)c1ccco1` (stereo not drawn) [Compound 56, 4-(5-{3-[3-(furan-2-carbonyl)-4-methyl-4-naphthalen-1-yl-2,5-dioxo-imidazolidin-1-yl]-propyl}-imidazol-1-ylmethyl)-benzonitrile], the IC50 was 0.08 µM in assay [1], < 20 µM in assay [2] and > 10 µM in assay [3].
The corresponding values for `CC1(c2cccc3ccccc23)C(=O)N(CCCn2ccnc2)C(=O)N1Cc1ccc(C(=O)N2CCOCC2)cc1` (stereo not drawn) [Compound 40] are 1.4 µM, < 20 µM and > 10 µM.
The corresponding values for `CC1(c2cccc3ccccc23)C(=O)N(CCCc2cnc[nH]2)C(=O)N1CC(=O)N1CCS(=O)(=O)C1` (stereo not drawn) [Compound 11] are > 50 µM, < 20 µM and > 10 µM.
On to `CCCN1C(=O)N(CCCc2cncn2Cc2ccc(C#N)cc2)C(=O)C1(C)c1cccc2ccccc12` (stereo not drawn) [Compound 48, 4-{5-[3-(3-propyl-4-methyl-4-naphthalen-1-yl-2,5-dioxo-imidazolidin-1-yl)-propyl]-imidazol-1-ylmethyl}benzonitrile], for which the IC50 is 0.04 µM in assay [1], < 20 µM in assay [2] and > 10 µM in assay [3].
In the case of `CSCCC(NC(=O)CN1C(=O)N(CCc2c[nH]cn2)C(=O)C1(C)c1cccc2ccccc12)C(=O)O` (stereo not drawn) [Compound 4, 2-(2-{3-[2-(1H-imidazol-4-yl)-ethyl]-5-methyl-5-naphthalen-1-yl-2,4-dioxo-imidazolidin-1-yl}-acetylamino)-4-methylsulfanyl-butyric acid], the values for the IC50 in assay [1], in assay [2] and in assay [3] were 0.0048 µM, 10 µM and 0.7 µM, respectively.
